Measurements reported in paper PMC9518244, “TiO2 nanotube immobilised 5-lipoxygenase-mediated screening and isolation of anti-inflammatory active compounds from the leaves of lonicera japonica thunb” (Journal of Enzyme Inhibition and Medicinal Chemistry, 2022).
Read-outs that look alike come from different tables or passages of the source.

How the values were obtained:
5-LOX [1] = molecular target: T1, 5-LOX (Glycine max, UniProt P08170); assay: Offline enzyme model: 5-LOX inhibition, linoleic acid / FOX reagent, A590; assay type: biochemical; conditions: concentration 1.0 mmol/L
From the text: Specific steps were as follows:
Information Classification: General
(1 picture or pasted object on this page, not shown here)

RAW264.7 cells [2] = assay: Cell morphology observation of RAW264.7 cells; assay type: cell-based, mouse; conditions: 60 μM, with and without LPS 100 ng/mL, microscope 200x
Procedure: The RAW264.7 mouse macrophage cell line (RAW264.7) was cultured in DMEM (Dulbecco's modified eagle medium) supplemented with 10% (v/v) Fetal bovine serum (FBS), 1×105 U·L-1 penicillin and 100 mg·L-1 streptomycin under an atmosphere of humidified 5% CO2 at 37 °C to the logarithmic phase. The samples were dissolved in DMSO and diluted with medium to the desired concentration. The content of DMSO should not exceed 1‰.
There are blank group (no test sample, no LPS), model group (100 ng/mL LPS), experimental group (60 μM test sample + LPS) and negative control group (60 μM test sample) were tested.
For cell morphology observation , the cells were seeded into 6 -well plates at an inoculation amount of 6 ×10^5/well, cultured at 37 °C and 5% CO2 for 24 h, and then the medium was changed. After 2 h incubation with different groups, LPS stimulation with a final concentration of 100 ng/mL were added into the model group and experimental group .
normal group and the negative control group were added with the same volume of PBS, and then photographed under a microscope (200x) after 22 h.

RAW264.7 cells [3] = assay: Cytotoxicity assay (CCK-8) in RAW264.7 cells; assay type: cell-based, mouse; conditions: for Toxicity on RAW264.7 cells (in words): 20-60 μM, luteolin 1-5 μM
Procedure: (§1) For cytotoxicity assay, RAW264.7 cells were seeded in 96-well plates at an inoculation amount of 3 × 10^4/well, and the medium was changed after culturing for 24 h at 37 °C and 5% […]
(§2) concentration (20 μM, 40 μM and 60 μM) of sample solution prepared with fresh medium was added dropwise to 96-well plate. After incubation for 2 h, LPS with a final concentration of 100 ng/mL was added to each well of the experimental group and the model group , the same volume of PBS was added to the normal group and the negative control group. After stimulation for another 22 h, the medium was removed and replaced with fresh medium. 10 μL of CCK-8 reagent was added at room temperature in the dark, and the absorbance was measured at a wavelength of 450 nm after 1 h. […]

5-LOX [4] = molecular target: T1, 5-LOX; assay: 5-LOX immobilised on TiO2 nanotubes microreactor screening (HPLC peak area ratio); assay type: binding; conditions: analytes of LLJT extract eluted from immobilised 5-LOX, HPLC-MS
Procedure: Glutaraldehyde (GA) was used as crosslinking agent to covalently immobilise 5-LOX on the amino terminated TNTs. The NH2-TNTs was added to GA solution and shaken in a incubator at room temperature (25 °C) for 8 h. The resulting product was labelled GA-TNTs. Then GA-TNTs was merged with Tris-HCl solution (0.1 M, pH 7.0) containing a certain amount of 5-LOX, and the immobilisation was performed in a shaker at 4 °C for a certain time. After that, the immobilised 5-LOX was acquired by centrifuge to remove supernatant and comprehensively rinsed with Tris-HCl buffer solution several times to remove the unimmobilised enzyme. The 5-LOX-TNTs composites were suspended in Tris-HCl solution and stored at 4 °C before use.
The crude extract of leaves of Lonicera japonica Thunb. was added to 5% (v/v) methanol-Tris buffer solution, and dissolved by ultrasonic to prepare an incubation solution with a concentration of about 5.66 mg/mL. Then 25 mg of material immobilised with 5-LOX was combined with 1 mL of incubation solution and incubated at 25 °C for 90 min on a shaker. After incubation, the material was washed with 1 mL of buffer solution for six times. Then 1 mL of 90% (v/v) acetonitrile aqueous solution was used for ultrasonic elution for 10 min. After centrifugation, the supernatant was filtered and analysed by HPLC-MS.
The screening processes were the same as above.

RAW264.7 cells [5] = assay: NO production in LPS-stimulated RAW264.7 cells (NO kit); assay type: cell-based, mouse; conditions: for LPS-induced NO release in RAW264.7 cells (in words): compared with the model group
Procedure: For the effects of the test samples on NO production research, RAW264.7 cells were seeded in 96-well plates at 3×10^4 cells/well, cultured at 37°C, 5% CO 2, and the medium was changed after 24 h. There were the blank group, model group, experimental group (20 μM, 40 μM, 60 μM test sample+LPS) and negative control group (60 μM test sample). After dosing, the cells were incubated at 37 °C with 5% CO 2 for 2 h, then LPS was added to the model group and the experimental group to make the final concentration reach 100 ng/mL, the normal group and the negative control group were added with the same volume of PBS, Then 50 μL of supernatant was taken after culturing for 20 h to record the absorbance value at 540 nm using Information Classification: General

5-LOX [6] = system: 5-LOX; parameters: method as in earlier work; conditions: RBL-1 cells; cited from earlier work
[7] = Cytotoxicity assay (CCK-8) in RAW264.7 cells; assay type: cell-based, mouse; conditions: mouse, RAW264.7 cells, read-out: Cell viability (%)
Procedure: as §1, §2

[8] = Cytotoxicity assay (CCK-8) in RAW264.7 cells; assay type: cell-based; conditions: mouse, no LPS, read-out: Cell viability (%)
rat foot swelling = assay: Rat foot swelling model (egg white); assay type: in vivo; conditions: 5.0 mg/kg intraperitoneal, 10-60 min after egg white
Procedure: the NO kit, and the amount of NO produced in each well was calculated. Each group of experiment was performed in parallel three times.
All the animals were acclimated under standard laboratory conditions and had free access to standard water and food. All procedures were conducted in accordance with the “Guiding Principles in the Care and Use of Animals” (China) and were approved by the Ethics Committee of Biomedical Scientific Research of Henan University.
Thirty two male and female rats were divided into four groups with eight rats in each group.
They were normal saline negative control group, dexamethasone positive control group, n-butanol phase of Lonicera japonica Thunb. leaves (RDY nB) administration group and the […]
The intraperitoneal injection method was used
One hour after injection the corresponding drugs in each group, 0.1 mL of fresh egg white was injected into the right postal paw of each rat. Before and after the injection of egg white at 10, 20, 30, 40, 50, and 60 min, the volume of the right postal paw of rat was measured by a toe volume meter, and the swelling rate was calculated. […]
Statistical analysis was analyzed by one-way ANOVA through SPSS 17.0 software, and all data expressed as mean ± SD. Meanwhile, the significant difference between groups was evaluated by Tukey post-hoc test, P<0.05 and P<0.01 were considered statistically Information Classification: General […]

[9] = 40 μmol/L, LPS 100 ng/mL, vs model group
[10] = 60 μmol/L, LPS 100 ng/mL, vs model group

T1 sequence (P08170 whole entry): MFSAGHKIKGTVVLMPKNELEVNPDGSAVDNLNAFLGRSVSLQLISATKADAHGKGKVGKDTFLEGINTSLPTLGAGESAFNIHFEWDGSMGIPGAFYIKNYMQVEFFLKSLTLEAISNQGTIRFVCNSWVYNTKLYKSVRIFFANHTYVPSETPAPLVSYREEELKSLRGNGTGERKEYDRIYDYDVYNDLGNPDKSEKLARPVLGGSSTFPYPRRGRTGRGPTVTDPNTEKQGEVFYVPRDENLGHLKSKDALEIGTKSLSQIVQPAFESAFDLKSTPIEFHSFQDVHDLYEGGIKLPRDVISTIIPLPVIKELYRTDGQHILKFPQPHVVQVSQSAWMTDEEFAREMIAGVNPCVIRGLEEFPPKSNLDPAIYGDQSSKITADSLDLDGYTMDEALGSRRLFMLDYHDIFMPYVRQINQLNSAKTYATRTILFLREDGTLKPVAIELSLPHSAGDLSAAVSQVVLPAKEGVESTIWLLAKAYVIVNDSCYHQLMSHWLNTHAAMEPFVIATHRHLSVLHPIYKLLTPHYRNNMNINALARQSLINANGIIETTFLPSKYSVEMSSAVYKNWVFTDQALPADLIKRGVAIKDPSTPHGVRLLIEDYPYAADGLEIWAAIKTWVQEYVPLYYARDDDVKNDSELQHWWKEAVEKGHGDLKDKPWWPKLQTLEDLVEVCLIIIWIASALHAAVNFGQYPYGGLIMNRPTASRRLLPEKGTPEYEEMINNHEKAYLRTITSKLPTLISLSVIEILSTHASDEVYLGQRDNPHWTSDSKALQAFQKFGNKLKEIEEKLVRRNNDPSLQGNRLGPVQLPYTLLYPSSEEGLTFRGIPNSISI

| SMILES | Inhibitory rate (%) (5-LOX [1]) | Effect on morphology of RAW264.7 cells (RAW264.7 cells [2]) | Cell viability (%) (RAW264.7 cells [3]; 20 μmol/L, LPS 100 ng/mL) | Cell viability (%) (RAW264.7 cells [3]; 20 μmol/L, no LPS) | Cell viability (%) (RAW264.7 cells [3]; 40 μmol/L, LPS 100 ng/mL) | Cell viability (%) (RAW264.7 cells [3]; 40 μmol/L, no LPS) | Cell viability (%) (RAW264.7 cells [3]; 60 μmol/L, LPS 100 ng/mL) | Cell viability (%) (RAW264.7 cells [3]; 60 μmol/L, no LPS) | Toxicity on RAW264.7 cells (in words) (RAW264.7 cells [3]) | Bonding rate (%) (5-LOX [4]) | NO content (RAW264.7 cells [5]; 20 μmol/L, LPS 100 ng/mL) | NO content (RAW264.7 cells [5]; 20 μmol/L, no LPS) | NO content (RAW264.7 cells [5]; 40 μmol/L, LPS 100 ng/mL) | Inhibition rate (%) of NO production (RAW264.7 cells [5]; [9]) | NO content (RAW264.7 cells [5]; 60 μmol/L, LPS 100 ng/mL) | Inhibition rate (%) of NO production (RAW264.7 cells [5]; [10]) | LPS-induced NO release in RAW264.7 cells (in words) (RAW264.7 cells [5]; LPS 100 ng/mL) | viability at 24 h, 20 μmol/L ([7]; LPS 100 ng/mL) | viability at 24 h, 20 μmol/L ([7]; no LPS) | viability at 24 h, 40 μmol/L ([7]; LPS 100 ng/mL) | other results |
| --- | --- | --- | --- | --- | --- | --- | --- | --- | --- | --- | --- | --- | --- | --- | --- | --- | --- | --- | --- | --- | --- |
| O=C(/C=C/c1ccc(O)c(O)c1)O[C@H]1[C@H](O)C[C@](O)(C(=O)O)C[C@H]1OC(=O)/C=C/c1ccc(O)c(O)c1 [Isochlorogenic acid C, isochlorogenic acid C] | 40.24% | improve the deformation of the inflammatory cells | 206.6±7.8% | 140.0±7.6% | 188.8±1.4% | 190.4±0.2% | 201.4±3.8% | 186.6±4.1% | low toxicity on RAW264.7 cells | 6.34% | 6.6 ± 0.3 µmol/L | 5.9 ± 0.4 µmol/L | 6.7 ± 0.6 µmol/L | 25.6% | 7.2 ± 0.6 µmol/L | 19.9% | can inhibit LPS-induced NO release in RAW264.7 cells |  |  |  |  |
| O=c1cc(-c2ccc(O)c(O)c2)oc2cc(O)cc(O)c12 [Luteolin, luteolin] |  | cause a large number of cell death |  |  |  |  |  |  |  | 34.85% |  |  |  |  |  |  | failed to inhibit | 52.6 ± 3.1% | 49.5 ± 3.9% | 33.4 ± 12.9% | IC50 (5-LOX [6]): 810 nM; viability at 24 h, 1 μmol/L ([7]; LPS 100 ng/mL): 195 ± 2.6%; viability at 24 h, 1 μmol/L ([7]; no LPS): 120 ± 7.2%; viability at 24 h, 2 μmol/L ([7]; 2 μmol/L, LPS 100 ng/mL): 199 ± 8.6%; viability at 24 h, 5 μmol/L ([7]; 5 μmol/L, LPS 100 ng/mL): 170 ± 3.5%; viability at 24 h, 40 μmol/L ([7]; no LPS): 22 ± 2.4%; viability at 24 h, 60 μmol/L ([7]; LPS 100 ng/mL): 1.4 ± 0.6%; viability at 24 h, 60 μmol/L ([7]; no LPS): 1.5 ± 0.4%; NO content (RAW264.7 cells [5]; 1 μmol/L, LPS 100 ng/mL): 14.4 ± 0.4 µmol/L; NO content (RAW264.7 cells [5]; 1 μmol/L, no LPS): 11.6 ± 0.6 µmol/L; NO content (RAW264.7 cells [5]; 2 μmol/L, LPS 100 ng/mL): 12.1 ± 0.1 µmol/L; NO content (RAW264.7 cells [5]; 5 μmol/L, LPS 100 ng/mL): 9.4 ± 0.5 µmol/L; inhibition at 1 µM (RAW264.7 cells [5]; Mus musculus, RAW264.7, 1 μmol/L, LPS 100 ng/mL, vs model group, read-out: Inhibition rate (%) of NO production): -51.1%; inhibition at 2 µM (RAW264.7 cells [5]; Mus musculus, RAW264.7, 2 μmol/L, LPS 100 ng/mL, vs model group, read-out: Inhibition rate (%) of NO production): -26.4%; inhibition at 5 µM (RAW264.7 cells [5]; Mus musculus, RAW264.7, 5 μmol/L, LPS 100 ng/mL, vs model group, read-out: Inhibition rate (%) of NO production): 1.8%; viability at 24 h, 2 μmol/L [8]: 104 ± 8.5% |
| O=c1cc(-c2ccc(O)c(O)c2)oc2cc(O[C@@H]3O[C@H](CO)[C@@H](O)[C@H](O)[C@H]3O)cc(O)c12 [Luteoloside, luteoloside] | 27.26% | no significant effect on cells | 102.6±0.4% | 100.2±2.1% | 104.2±3.4% | 102.1±1.7% | 103.2±4.8% | 56.8±8.8% |  | 8.87% | 11.5 ± 0.1 µmol/L | 15.8 ± 1.5 µmol/L | 11.9 ± 0.5 µmol/L | -24.9% | 13.6 ± 1.3 µmol/L | -43.0% | failed to inhibit |  |  |  | Inhibition rate (%) of NO production (RAW264.7 cells [5]; 20 μmol/L, LPS 100 ng/mL, vs model group): -20.2% |
| C[C@@H]1C[C@H]2[C@@H]3CCC4=CC(=O)C=C[C@]4(C)[C@@]3(F)[C@@H](O)C[C@]2(C)[C@@]1(O)C(=O)CO [Dexamethasone] |  |  |  |  |  |  |  |  |  |  |  |  |  |  |  |  |  |  |  |  | Anti-inflammatory effect, foot swelling rate (rat foot swelling): showed a good anti-inflammatory effect |
| C[C@@H]1O[C@@H](O[C@H]2[C@H](Oc3cc(O)c4c(=O)cc(-c5ccc(O)c(O)c5)oc4c3)O[C@H](CO)[C@@H](O)[C@@H]2O)[C@H](O)[C@H](O)[C@H]1O [Lonicerin, lonicerin] |  | improve the deformation of the inflammatory cells |  |  |  |  |  |  | low toxicity on RAW264.7 cells | 23.42% | 6.9 ± 0.3 µmol/L | 6.1 ± 0.1 µmol/L | 7.4 ± 0.2 µmol/L |  | 7.9 ± 2.4 µmol/L |  | could also inhibit LPS-induced NO release | 216 ± 4.2% | 196.2 ± 1.8% | 204 ± 3.5% | viability at 24 h, 40 μmol/L ([7]; no LPS): 180 ± 9.1%; viability at 24 h, 60 μmol/L ([7]; LPS 100 ng/mL): 226 ± 7.8%; viability at 24 h, 60 μmol/L ([7]; no LPS): 179.4 ± 0.8%; inhibition at 20 µM (RAW264.7 cells [5]; Mus musculus, RAW264.7, 20 μmol/L, LPS 100 ng/mL, vs model group, read-out: Inhibition rate (%) of NO production): 23.7%; inhibition at 40 µM (RAW264.7 cells [5]; Mus musculus, RAW264.7, 40 μmol/L, LPS 100 ng/mL, vs model group, read-out: Inhibition rate (%) of NO production): 18.5%; inhibition at 60 µM (RAW264.7 cells [5]; Mus musculus, RAW264.7, 60 μmol/L, LPS 100 ng/mL, vs model group, read-out: Inhibition rate (%) of NO production): 12.4% |
